In PMC6910931, “Converging TLR9 and PI3Kgamma signaling induces sterile inflammation and organ damage” (Scientific Reports, 2019):
“Also recorded” adds a separate entry of the source.

Experiments:
C57BL/6 mice [1] = assay: CpG-induced pleurisy model; type: in vivo; settings: CpG 750 ng/cavity, 12 hours
Description: Animals received one single injection of C-class CpG in the pleural cavity with the indicated dose of agonist. At indicated timepoints, mice were anesthetized intraperitoneally with a mixture of Ketamine/Xylazine and then killed with overdose of intravenous anaesthetic (80 mg/Kg and 15 mg/Kg, respectively). Pleural cavity was washed two times with 1 mL of PBS 10 mM EDTA resulting in a total of 2 mL of lavage. Cells were centrifuged and used for total cell count and differential cell count after Romanowsky staining (Panótico Rápido LB). For the pleurisy model, mice were orally treated with AS605240 twice: 1 h prior the CpG injection and then 6 h after CpG, 20 mg/kg diluted in 0,9% Saline + 0.5% CMC + 0.1% Tween 20.
(§1) In this study, female C57BL/6 mice from 8 to 12 weeks of age were used in all experiments except for the chimaera mice. Animals were obtained from the UFMG’s Centro de Bioterismo and kept in the Laboratório de Imunofarmacologia with food and water ad libitum and day/night light cycles. For all investigations, mice were humanely sacrificed using an intra-peritoneal overdose of Ketamine/Xylazine at a dose equivalent to at least five times the dose used for anesthetising the mice. The animal studies presented here were registered and approved by the UFMG’s Comitê de Ética em Utilização Animal (CEUA) No. 191/2010 and 51/2011 and all the procedures were performed in accordance with the guidelines of the Conselho Nacional De Controle De Experimentação Animal’s resolution of Brazilian Ministry of Science, Technology, Innovation and Communication.

C57BL/6 mice [2] = assay: APAP-induced liver injury (DILI) model; type: in vivo; settings: for reduction in serum ALT levels: AS605240 20 mg/Kg oral 6 and 12 hours after APAP
Description: Mice were fasted for 15 hours before oral APAP administration (500 mg/Kg) or vehicle (sterile saline). After 24 hours mice were anesthetized for respiratory mechanics analysis (described below) and then killed for blood (serum), liver, bronchoalveolar lavage fluid (BALF), and lung collection. Alanine aminotransferase (ALT) levels were measured in the serum using an enzyme activity test (Bioclin). The myeloperoxidase activity assay was performed as described before. BALF was performed by washing the lungs twice with 1 mL of PBS 10 mM EDTA with a polyethylene cannula 18 G resulting in a total of 2 mL of lavage. Cells were centrifuged and used for total cell count and differential cell count after Romanowsky staining (Panótico Rápido LB)[59]. Fragments of liver and the left lobe of the lungs were fixed and then sectioned for histological analysis (Haematoxylin and Eosin). For the drug-induced liver injury model, mice were orally treated with AS605240 6 and 12 hours after APAP treatment or with n-Acetylcysteine (NAC) 1 hour before APAP or 6 and 12 hours after APAP treatment. AS605240 was diluted in 0,9% Saline + 0.5% CMC + 0.1% Tween 20 and given in a dose of 20 mg/Kg and NAC was diluted in 0.9% saline and given in a dose of 600 mg/Kg.
Animals were anesthetized with a mixture of Ketamine/Xylazine (200 mg/Kg and 15 mg/Kg, respectively) as indicated by Buxco. Dynamic compliance (mL/cm H2O), lung resistance (cm H2O × s/mL) and Forced Expiratory Volume at 100 ms (FEV100) (mL) were assessed in tracheostomized and mechanically ventilated mice using Forced Manoeuvres Platform (Buxco)[53].
as §1

[3] = APAP 500 mg/Kg, AS605240 20 mg/Kg, vs WT mice

**Q.** For O=C1NC(=O)/C(=C\c2ccc3nccnc3c2)S1 [AS605240], which “migration of mononuclear cells into the pleural cavity” value (C57BL/6 mice [1]; AS605240 20 mg/kg oral) is on record?
**A.** lower effect

**Q.** What about the “neutrophil recruitment into the pleural cavity” value (C57BL/6 mice [1]; AS605240 20 mg/kg oral) of the same compound?
**A.** reduced neutrophil recruitment

**Q.** And the “total leukocytes recruited into the pleural cavity” value (C57BL/6 mice [1]; AS605240 20 mg/kg oral 1 h prior and 6 h after CpG, vs untreated WT)?
**A.** less leukocytes recruited into the pleural cavity

**Q.** And the “lung remote damage (histological score of lung)” value (C57BL/6 mice [2]; APAP 500 mg/Kg, AS605240 20 mg/Kg)?
**A.** reduce lung remote damage

**Q.** What about the “reduction in serum ALT levels” value (C57BL/6 mice [2]; APAP 500 mg/Kg, 24 h) of the same compound?
**A.** approximately 50%

**Q.** What about the “reduction in serum ALT levels” value (C57BL/6 mice [2]; APAP 500 mg/Kg, 24 h, listed as AS650240) of the same compound?
**A.** 50%

**Q.** What about the “ALT levels in the serum” value (C57BL/6 mice [2]; [3]) of the same compound?
**A.** lower levels of ALT in the serum

**Q.** What about the “MPO levels in the liver” value (C57BL/6 mice [2]; [3]) of the same compound?
**A.** lower MPO levels in the liver

**Q.** And the “areas of necrotic tissue in the liver” value (C57BL/6 mice [2]; [3])?
**A.** less areas of necrotic tissue

**Q.** CC(=O)N[C@@H](CS)C(=O)O [NAC, N-acetyl-cysteine] was tested. Which “serum ALT levels, therapeutic treatment” value (C57BL/6 mice [2]; NAC 600 mg/Kg 6 and 12 hours after APAP, 24 h) did it give?
**A.** not able to reduce ALT levels; also recorded: no impact

**Q.** What about the “serum ALT levels, prophylactic treatment” value (C57BL/6 mice [2]; NAC 600 mg/Kg 1 hour before APAP, 24 h) of the same compound?
**A.** completely abrogated the rise of ALT levels
